Test results reported in US5731285A, “Tachiquinine antagonist tricyclic compounds, preparation of same and pharmaceutical compositions containing such compounds” (A. Menatini Industrie Farmaceutiche, priority 1992, dated 1998).
Positions of bridges follow the written chain, without caps; N, C: chain ends. Non-standard residues stand in square brackets, D forms with d. Residues, ends and D or L forms follow the SMILES beside them. Dap = NC[C@H](N)C(=O)O

Biological target: T1, neurokinin A receptor (receptor NK-2) (Oryctolagus cuniculus, UniProt P79218)
T1 construct: The said preparation consisted of isolated rabbit pulmonary artery; from tissue; host or cells: isolated rabbit pulmonary artery
T1 sequence (P79218 1-384): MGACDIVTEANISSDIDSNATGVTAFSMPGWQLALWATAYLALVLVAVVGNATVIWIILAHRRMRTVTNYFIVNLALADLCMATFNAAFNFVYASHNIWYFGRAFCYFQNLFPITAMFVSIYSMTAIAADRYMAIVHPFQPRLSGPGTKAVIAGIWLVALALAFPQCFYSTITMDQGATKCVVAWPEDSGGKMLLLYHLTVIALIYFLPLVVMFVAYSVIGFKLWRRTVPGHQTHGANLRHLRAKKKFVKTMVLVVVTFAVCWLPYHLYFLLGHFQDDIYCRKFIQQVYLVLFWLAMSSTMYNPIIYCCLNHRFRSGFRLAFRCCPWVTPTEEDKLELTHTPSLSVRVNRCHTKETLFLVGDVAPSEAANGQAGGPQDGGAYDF
Test: inhibition of NKA-induced contraction in isolated rabbit pulmonary artery
Assay type: cell-based
Details: compound, NKA 3 nM
Protocol: The capacity of the products described in the present invention to interact with the neurokinin A receptor as agonists or antagonists was assessed using a preparation characterized by the fact that the biological response produced by tachykinins and correlated peptides was exclusively determined by the neurokinin A receptor (receptor NK-2). The said preparation consisted of isolated rabbit pulmonary artery affected by a dose-dependentcontraction brought about by tachykinins (Rovero et al., Neuropeptides, 13, 263-270, 1989). The determination of the peptide activity in the test preparation was based on the use of an NKA concentration (3 nM) causing a response equal to 45% of max. response. The peptides considered herein were added to the preparation in growing concentrations. Their activity was assessed as inhibition of response to NKA.

SMILES: CSCC[C@@H]1NC(=O)[C@H](CC(C)C)NC(=O)[C@@H]2CNC(=O)C[C@H](NC1=O)C(=O)N[C@@H](Cc1c[nH]c3ccccc13)C(=O)N[C@@H](Cc1ccccc1)C(=O)N2 [Compound 1] (cyclo(DWF[Dap]LM); lactam 1-4)
- inhibition of response to neurokinins A: 100%
